Literature values, collected in US20190328656A1, “TARGETED DELIVERY OF PROGESTINS AND ESTROGENS VIA VAGINAL RING DEVICES FOR FERTILITY CONTROL AND HRT PRODUCTS” (Evestra, Inc., priority 2018, published 2019).

Columns and labels:
[1] = compared to estriol
[2] = elimination from the blood stream

| half-life [2] | Compound | estrogenic activity [1] |
| --- | --- | --- |
|  | C[C@]12CC[C@@H]3c4ccc(O)cc4CC[C@H]3[C@@H]1[C@@H](O)[C@@H](O)[C@@H]2O [Estetrol] | very weak estrogenic activity |
| around 1 hour | C[C@]12CC[C@@H]3c4ccc(O)cc4CC[C@H]3[C@@H]1CC[C@@H]2O [17-beta estradiol] |  |
